Measured values published in patent publication US20250066365A1, “Ribonucleoside Analogues Against -Sars-Cov-2” (priority 2021, published 2025).
≈ marks a conversion by molar mass, not a printed value.

How the values were obtained:
[1] = test system: SARS-CoV-2 USA_WA1/2020 strain; assay: microbe, parasite or virus in culture; assay type: cell-based
in vitro [2] = conditions: African green monkey
[3] = test system: SARS-CoV-2 USA_WA1/2020 strain; assay: Activity against SARS-CoV-2 in Vero E6 cells (cytopathic effect, visual and neutral red); assay type: cell-based; conditions: read-out: EC50 (mM/mL) USA_WA1/2020 strain
in vitro [4] = conditions: African green monkey; remark: listed apart in the source
SARS-CoV-2 nsp14 = SARS-CoV-2 nsp14 (Severe acute respiratory syndrome coronavirus 2, UniProt P0DTD1); conditions: cited from earlier work
[5] = Severe acute respiratory syndrome coronavirus 2, Vero 76, Neutral red (Cytopathic effect/Toxicity), Vero 76 cells, read-out: EC50 (mg/mL) USA_WA1/2020 strain
[6] = Severe acute respiratory syndrome coronavirus 2, Vero 76, Visual (Cytopathic effect/Toxicity), Vero 76 cells, read-out: EC50 (mg/mL) USA_WA1/2020 strain
[7] = CC50 (mg/mL) Vero 76, Neutral red (Cytopathic effect/Toxicity)
[8] = CC50 (mg/mL) Vero 76, Visual (Cytopathic effect/Toxicity)
[9] = Severe acute respiratory syndrome coronavirus 2, Vero C1008, Neutral red (Cytopathic effect/Toxicity)
[10] = Severe acute respiratory syndrome coronavirus 2, Vero C1008, Visual (Cytopathic effect/Toxicity)
[11] = CC50 (mM/mL) Vero E6, Neutral red (Cytopathic effect/Toxicity)
[12] = CC50 (mM/mL) Vero E6, Visual (Cytopathic effect/Toxicity)

| Structure (SMILES) | EC50 [3, 9] [mM] | EC50 [3, 10] [mM] | CC50 (in vitro [4]; [11]) [mM] | CC50 (in vitro [4]; [12]) [mM] | further results |
| --- | --- | --- | --- | --- | --- |
| C=Cc1cc([C@@H]2O[C@H](CO)[C@@H](O)[C@H]2O)n2ncnc(N)c12 [Compound 4.2a, 7-Vinyl-4-aza-7,9-dideazaadenosine] |  |  |  |  | EC50 [1, 5]: 0.00016 mg/mL (≈ 0.547 µM); EC50 ([1]; Severe acute respiratory syndrome coronavirus 2, Vero 76, Vero 76 cells, read-out: EC50 against SARS-CoV-2): 0.00016 mg/mL (≈ 0.547 µM); EC50 [1, 6]: < 0.0001 mg/mL; activity against SARS-CoV-2 (in words) ([1]; Vero 76 cells): active; cytotoxicity (in words) (Vero 76 cells): significant cytotoxicity; CC50 (in vitro [2]; [7]): 4.7 µg/mL (≈ 16.1 µM); CC50 (in vitro [2]; [8]): 3.2 µg/mL (≈ 10.9 µM) |
| Nc1ncnn2c([C@@H]3O[C@H](CO)[C@@H](O)[C@H]3O)cc(/C=C/c3ccccn3)c12 [Compound 4.2b, 7-((E)-2-(Pyridin-2-yl)vinyl)-4-aza-7,9-dideazaadenosine] |  |  |  |  | EC50 [1, 5]: < 0.0001 mg/mL; EC50 [1, 6]: > 0.00032 mg/mL; cytotoxicity (in words) (Vero 76 cells): potent cytotoxicity; CC50 (in vitro [2]; [7]): 0.32 µg/mL (≈ 0.866 µM); CC50 (in vitro [2]; [8]): 0.32 µg/mL (≈ 0.866 µM) |
| Cc1ccc(/C=C/c2cc([C@@H]3O[C@H](CO)[C@@H](O)[C@H]3O)n3ncnc(N)c23)cc1 [Compound 4.2c, 7-((E)-4-Methylstyryl)-4-aza-7,9-dideazaadnosine] |  |  |  |  | EC50 against SARS-CoV-2 [1]: 0.3 µg/mL (≈ 0.784 µM); activity against SARS-CoV-2 (in words) ([1]; Vero 76 cells): potent antiviral activity |
| Nc1ncnn2c([C@@H]3O[C@H](CO)[C@@H](O)[C@H]3O)cc(/C=C/c3ccc(F)cc3)c12 [Compound 4.2d, 7-((E)-4-Fluorostyryl)-4-aza-7,9-dideazaadenosine] |  |  |  |  | EC50 [1, 5]: > 0.0058 mg/mL; EC50 [1, 6]: > 0.0032 mg/mL; CC50 (in vitro [2]; [7]): 5.8 µg/mL (≈ 15 µM); CC50 (in vitro [2]; [8]): 3.2 µg/mL (≈ 8.28 µM) |
| Nc1ncnn2c([C@@H]3O[C@H](CO)[C@@H](O)[C@H]3O)cc(/C=C/c3ccc(C(F)(F)F)cc3)c12 [Compound 4.2e, 7-((E)-4-(Trifluoromethyl)styryl)-4-aza-7,9-dideazaadenosine] |  |  |  |  | EC50 [1, 5]: > 0.032 mg/mL; EC50 [1, 6]: > 0.032 mg/mL; activity against SARS-CoV-2 (in words) ([1]; Vero 76 cells): inactive; CC50 (in vitro [2]; [7]): 32 µg/mL (≈ 73.3 µM); CC50 (in vitro [2]; [8]): 32 µg/mL (≈ 73.3 µM) |
| Nc1ncnn2c([C@@H]3O[C@H](CO)[C@@H](O)[C@H]3O)cc(/C=C/c3ccc(Cl)cc3)c12 [Compound 4.2f, 7-((E)-4-Chlorostyryl)-4-aza-7,9-dideazaadenosine] | > 0.032 | > 0.032 | 0.032 | 0.032 |  |
| Nc1ncnn2c([C@@H]3O[C@H](CO)[C@@H](O)[C@H]3O)cc(/C=C/c3cccc(F)c3)c12 [Compound 4.2g, 7-((E)-3-Fluorostyryl)-4-aza-7,9-dideazaadenosine] | > 0.032 | > 0.032 | 0.032 | 0.032 |  |
| Nc1ncnn2c([C@@H]3O[C@H](CO)[C@@H](O)[C@H]3O)cc(/C=C/C3CC3)c12 [Compound 4.2h, 7-((E)-2-Cyclopropylvinyl)-4-aza-7,9-dideazaadenosine] | > 0.1 | > 0.1 | > 0.1 | > 0.1 |  |
| Nc1ncnn2c([C@@H]3O[C@H](CO)[C@@H](O)[C@H]3O)cc(/C=C/C3CCCC3)c12 [Compound 4.2i, 7-((E)-2-Cyclopentylvinyl)-4-aza-7,9-dideazaadenosine] | > 0.1 | > 0.1 | > 0.1 | > 0.1 |  |
| Nc1ncnn2c([C@@H]3O[C@H](CO)[C@@H](O)[C@H]3O)cc(/C=C/c3cccs3)c12 [Compound 4.2j, 7-((E)-2-(Thiophen-2-yl)vinyl)-4-aza-7,9-dideazaadenosine] | > 0.032 | > 0.028 | 0.032 | 0.028 |  |
| Nc1ncnn2c([C@@H]3O[C@H](CO)[C@@H](O)[C@H]3O)cc(/C=C/c3ccsc3)c12 [Compound 4.2k, 7-((E)-2-(Thiophen-3-yl)vinyl)-4-aza-7,9-dideazaadenosine] | > 0.0031 | > 0.0032 | 0.0031 | 0.0032 |  |
| Nc1ncnn2c([C@@H]3O[C@H](CO)[C@@H](O)[C@H]3O)cc(/C=C/C3CCCCC3)c12 [Compound 4.2l, 7-((E)-2-Cyclohexylvinyl)-4-aza-7,9-dideazaadenosine] | > 0.1 | > 0.1 | > 0.1 | > 0.1 |  |
| CCC/C=C/c1cc([C@@H]2O[C@H](CO)[C@@H](O)[C@H]2O)n2ncnc(N)c12 [Compound 4.2m, 7-((E)-pent-1-en-1-yl)-4-aza-7,9-dideazaadenosine] | > 0.1 | > 0.1 | > 0.1 | > 0.1 |  |
| Nc1ncnc2c1ncn2[C@@H]1O[C@H](CSCCNC(=O)NCCc2ccccc2)[C@@H](O)[C@H]1O [DS0464] |  |  |  |  | concentration range of nsp14 inhibition (in words) (SARS-CoV-2 nsp14): low-micromolar |
| N#Cc1cn([C@@H]2O[C@H](CSCC[C@H](N)C(=O)O)C(O)[C@@H]2O)c2ncnc(N)c12 (stereo partly drawn) [SS148] |  |  |  |  | concentration range of nsp14 inhibition (in words) (SARS-CoV-2 nsp14): submicromolar to nanomolar |
